Test results from patent US20230104936A1, “TRPML MODULATORS” (Casma Therapeutics, Inc., priority 2019, published 2023).
Where a name gives a salt, the structure may show the parent alone.

System: TFEB
Experiment: TFEB nuclear translocation assay, HeLa wt cells
Assay type: cell-based
Details: 2 hrs compound treatment, Table 1 does not say HeLa wt or TRPML1 KO
Summary of the method: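 Cells are plated overnight, exposed to compounds for 2 hrs at 37° C, fixed with 4% PFA, blocked, and stained overnight at 4° C with rabbit anti-TFEB. After Alexa 488 secondary and Hoechst, nuclei and a perinuclear ring are segmented to give a nuclear:ring intensity ratio and AC50.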

Row | SMILES | AC50 (Homo sapiens, HeLa, 2 h) [µM] | AC50 [µM]
1 | COc1ccc(N2CCOCC2)c(NS(=O)(=O)Cc2ccc3c(c2)COCC3)c1 [Compound A-609, 1-(3,4-dihydro-1H-2-benzopyran-7-yl)-N-[5-methoxy-2-(morpholin-4-yl)phenyl]methanesulfonamide] | 8.01 to 9.99 | 
2 | CC(C)(C)C(=O)N1CCN(c2ccccc2NS(=O)(=O)Cc2ccc3c(c2)COCC3)CC1 [Compound A-501, 1-(3,4-dihydro-1H-2-benzopyran-7-yl)-N-{2-[4-(2,2-dimethylpropanoyl)piperazin-1-yl]phenyl}methanesulfonamide] | 2.01 to 8 | 
3 | CN(C)S(=O)(=O)c1ccc(S(=O)(=O)Nc2cccc(Cl)c2N2CCCCC2)cc1 [Compound A-652, N4-[3-chloro-2-(piperidin-1-yl)phenyl]-N1,N1-dimethylbenzene-1,4-disulfonamide] | ≤ 2 | 
4 | CC(C)(C)C(=O)N1CCN(c2ccccc2NS(=O)(=O)c2ccc(C(F)(F)F)cc2)CC1 [Compound A-527, N-{2-[4-(2,2-dimethylpropanoyl)piperazin-1-yl]phenyl}-4-(trifluoromethyl)benzene-1-sulfonamide] | 2.01 to 8 | 
5 | CN(C)S(=O)(=O)c1ccc(S(=O)(=O)Nc2ccccc2N2CCN(C(=O)C(O)c3ccccc3)CC2)cc1 (stereo not shown) [Compound A-335, N4-{2-[4-(2-hydroxy-2-phenylacetyl)piperazin-1-yl]phenyl}-N1,N1-dimethylbenzene-1,4-disulfonamide] | ≥ 10 | 
6 | CC(C)(C)C(=O)N1CCN(c2ccccc2NS(=O)(=O)c2ccc(C(F)F)cc2)CC1 [Compound A-529, 4-(difluoromethyl)-N-{2-[4-(2,2-dimethylpropanoyl)piperazin-1-yl]phenyl}benzene-1-sulfonamide] | 2.01 to 8 | 
7 | CN(C)S(=O)(=O)c1ccc(S(=O)(=O)Nc2ccccc2N2CCC(C3CCCO3)CC2)cc1 (stereo not shown) [Compound A-419, N1,N1-dimethyl-N4-{2-[4-(oxolan-2-yl)piperidin-1-yl]phenyl}benzene-1,4-disulfonamide] | ≤ 2 | 
8 | COC1(C)CCN(c2ccccc2NS(=O)(=O)c2ccc(S(=O)(=O)N(C)C)cc2)CC1 [Compound A-454, N4-[2-(4-methoxy-4-methylpiperidin-1-yl)phenyl]-N1,N1-dimethylbenzene-1,4-disulfonamide] | ≤ 2 | 
9 | COc1ccc(S(=O)(=O)Nc2ccccc2N2CCC(Cc3ccc(F)cc3F)C2)cc1 (stereo not shown) [Compound A-197, N-(2-{3-[(2,4-difluorophenyl)methyl]pyrrolidin-1-yl}phenyl)-4-methoxybenzene-1-sulfonamide] | ≥ 10 | 
10 | O=S(=O)(Nc1cc(Cl)ccc1N1CCC2(C1)OCc1ccccc12)c1ccc2c(c1)CCC2 (stereo not shown) [Compound A-357, N-(5-chloro-2-{3H-spiro[2-benzofuran-1,3′-pyrrolidin]-1′-yl}phenyl)-2,3-dihydro-1H-indene-5-sulfonamide] | ≥ 10 | 
11 | COCC1(C)CCN(c2ccccc2NS(=O)(=O)c2ccc(S(=O)(=O)N(C)C)cc2)C(C)C1 (stereo not shown) [Compound A-745, N4-{2-[4-(methoxymethyl)-2,4-dimethylpiperidin-1-yl]phenyl}-N1,N1-dimethylbenzene-1,4-disulfonamide] | ≥ 10 | 
12 | CC(C)(C)S(=O)(=O)c1ccc(S(=O)(=O)Nc2ccccc2N2CCC(c3c(F)cccc3F)CC2)cc1 [Compound A-213, N-{2-[4-(2,6-difluorophenyl)piperidin-1-yl]phenyl}-4-(2-methylpropane-2-sulfonyl)benzene-1-sulfonamide] | ≤ 2 | 
13 | CC1(C)Cc2cc(S(=O)(=O)Nc3cccc(F)c3N3CCC(CN4C5CCC4COC5)CC3)ccc2O1 [Compound A-880, N-{3-fluoro-2-[4-({3-oxa-8-azabicyclo[3.2.1]octan-8-yl}methyl)piperidin-1-yl]phenyl}-2,2-dimethyl-2,3-dihydro-1-benzofuran-5-sulfonamide] | ≤ 2 | 
14 | O=S(=O)(Nc1cccc(Cl)c1N1CCOCC1)c1ccc(S(=O)(=O)C(F)F)cc1 [Compound A-274, N-[3-chloro-2-(morpholin-4-yl)phenyl]-4-difluoromethanesulfonylbenzene-1-sulfonamide] | ≥ 10 | 
15 | Cc1ccc(CS(=O)(=O)Nc2ccccc2N2CCC3(CC2)COC(C)(C)C3)cc1 [Compound A-711, N-(2-{3,3-dimethyl-2-oxa-8-azaspiro[4.5]decan-8-yl}phenyl)-1-(4-methylphenyl)methanesulfonamide] | ≤ 2 | 
16 | CN(C)S(=O)(=O)c1ccc(S(=O)(=O)Nc2ccccc2N2CCC(c3cccc(-c4nn[nH]n4)c3)CC2)cc1 [Compound A-272, N1,N1-dimethyl-N4-(2-{4-[3-(2H-1,2,3,4-tetrazol-5-yl)phenyl]piperidin-1-yl}phenyl)benzene-1,4-disulfonamide] | ≥ 10 | 
17 | CCN1CCN(c2c(Cl)cccc2NS(=O)(=O)c2ccc3c(c2)CCC3)CC1 [Compound A-300, N-[3-chloro-2-(4-ethylpiperazin-1-yl)phenyl]-2,3-dihydro-1H-indene-5-sulfonamide hydrochloride] | 2.01 to 8 | 

Row | SMILES | AC50 (Homo sapiens, HeLa, 2 h) [µM] | AC50 [µM]
18 | CN(C)S(=O)(=O)c1ccc(S(=O)(=O)Nc2ccccc2N2CCC(C)(C3(O)CC3)CC2)cc1 [Compound A-558, N1-(2-(4-(1-hydroxycyclopropyl)-4-methylpiperidin-1-yl)phenyl)-N4,N4-dimethylbenzene-1,4-disulfonamide] | 2.01 to 8 | 
19 | CS(=O)(=O)c1ccc(S(=O)(=O)Nc2ccccc2N2CCC(c3ccc(F)cc3F)CC2)cc1 [Compound A-100, N-{2-[4-(2,4-difluorophenyl)piperidin-1-yl]phenyl}-4-methanesulfonylbenzene-1-sulfonamide] | ≤ 2 | 
20 | CN(CCO)S(=O)(=O)c1ccc(S(=O)(=O)Nc2ccccc2N2CCC(c3c(F)cccc3F)CC2)cc1 [Compound A-223, N4-{2-[4-(2,6-difluorophenyl)piperidin-1-yl]phenyl}-N1-(2-hydroxyethyl)-N1-methylbenzene-1,4-disulfonamide] | 2.01 to 8 | 
21 | O=S(=O)(Nc1ccccc1N1CCN(c2ccc(F)cc2F)CC1)c1ccc(S(=O)(=O)C(F)(F)F)cc1 [Compound A-174, N-{2-[4-(2,4-difluorophenyl)piperazin-1-yl]phenyl}-4-trifluoromethanesulfonylbenzene-1-sulfonamide] | 2.01 to 8 | 
22 | C#Cc1ccc(NS(=O)(=O)c2ccc(S(=O)(=O)N(C)C)cc2)c(N2CCCCC2)c1 [Compound A-812, N4-[4-ethynyl-2-(piperidin-1-yl)phenyl]-N1,N1-dimethylbenzene-1,4-disulfonamide] | ≤ 2 | 
23 | O=S(=O)(Nc1cccc(N2CCC(c3ccc(Cl)cc3F)CC2)c1)c1ccc(F)cc1 [Compound A-128, N-{3-[4-(4-chloro-2-fluorophenyl)piperidin-1-yl]phenyl}-4-fluorobenzene-1-sulfonamide] | ≥ 10 | 
24 | CS(=O)(=O)c1ccc(S(=O)(=O)Nc2cc(F)ccc2N2CCC(c3c(F)cccc3F)CC2)cc1 [Compound A-154, N-{2-[4-(2,6-difluorophenyl)piperidin-1-yl]-5-fluorophenyl}-4-methanesulfonylbenzene-1-sulfonamide] | ≤ 2 | 
25 | Cc1ccc(CS(=O)(=O)Nc2ccccc2N2CCC3(CC2)COC(C)(C)C3)cc1F [Compound A-677, N-(2-{3,3-dimethyl-2-oxa-8-azaspiro[4.5]decan-8-yl}phenyl)-1-(3-fluoro-4-methylphenyl)methanesulfonamide] | ≤ 2 | 
26 | O=S(=O)(Nc1cccc(F)c1N1CCC(CN2C3CCC2COC3)CC1)c1ccc(C(F)(F)C2CC2)cc1 [Compound A-919, 4-(cyclopropyldifluoromethyl)-N-{3-fluoro-2-[4-({3-oxa-8-azabicyclo[3.2.1]octan-8-yl}methyl)piperidin-1-yl]phenyl}benzene-1-sulfonamide] | ≤ 2 | 
27 | O=S(=O)(Nc1cc(Cl)ccc1N1CCOCC1)c1ccc(S(=O)(=O)C(F)F)cc1 [Compound A-277, N-[5-chloro-2-(morpholin-4-yl)phenyl]-4-difluoromethanesulfonylbenzene-1-sulfonamide] | ≥ 10 | 
28 | CC(c1cccc(F)c1N1CCC(CN2CCC(F)(F)C2)CC1)S(=O)(=O)c1ccc(S(=O)(=O)N(C)C)cc1 (stereo not shown) [Compound A-806, 4-((1-(2-(4-((3,3-difluoropyrrolidin-1-yl)methyl)piperidin-1-yl)-3-fluorophenyl)ethyl)sulfonyl)-N,N-dimethylbenzenesulfonamide] |  | ≤ 2
29 | CCN1CCN(c2ccc(Cl)cc2NS(=O)(=O)c2ccc3c(c2)CCC3)C(=O)C1 [Compound A-314, N-[5-chloro-2-(4-ethyl-2-oxopiperazin-1-yl)phenyl]-2,3-dihydro-1H-indene-5-sulfonamide] | ≥ 10 | 
30 | CN(C)S(=O)(=O)c1ccc(S(=O)(=O)Nc2cccc(F)c2N2CCC(C)(N)CC2)cc1 [Compound A-899, N4-[2-(4-amino-4-methylpiperidin-1-yl)-3-fluorophenyl]-N1,N1-dimethylbenzene-1,4-disulfonamide] | ≥ 10 | 
31 | CC(N1CCN(c2ccccc2NS(=O)(=O)Cc2ccccc2)CC1)C(F)(F)F (stereo not shown) [Compound A-542, 1-phenyl-N-{2-[4-(1,1,1-trifluoropropan-2-yl)piperazin-1-yl]phenyl}methanesulfonamide] | ≤ 2 | 
32 | COCC1(C)CCN(c2ccccc2NS(=O)(=O)c2ccc(C(C)(C)C)cc2)CC1 [Compound A-483, 4-tert-butyl-N-{2-[4-(methoxymethyl)-4-methylpiperidin-1-yl]phenyl}benzene-1-sulfonamide] | ≤ 2 | 
33 | CN(C)S(=O)(=O)c1ccc(S(=O)(=O)Nc2nn(C)cc2C2CCN(c3ccc(Cl)cc3F)CC2)cc1 [Compound A-55, N1-(4-(1-(4-chloro-2-fluorophenyl)piperidin-4-yl)-1-methyl-1H-pyrazol-3-yl)-N4,N4-dimethylbenzene-1,4-disulfonamide] | ≤ 2 | 
34 | CN(C)S(=O)(=O)c1ccc(S(=O)(=O)Nc2ccccc2N2CCN(C3CC3)CC2)cc1 [Compound A-52, N4-[2-(4-cyclopropylpiperazin-1-yl)phenyl]-N1,N1-dimethylbenzene-1,4-disulfonamide] | ≤ 2 | 
